According to paper PMC6321136, “Combined In Vitro Studies and in Silico Target Fishing for the Evaluation of the Biological Activities of Diphylleia cymosa and Podophyllum hexandrum” (Molecules, 2018):
Like-named read-outs stand apart in the source and are kept apart here.

Experiments:
[1] = system: Anticancer, non-Hodgkin lymphoma; set-up: method as in PubChem Bioassay AID 651558; conditions: ref PubChem Bioassay AID 651558; cited from earlier work
Anti-Inflammatory model [2] = system: Anti-Inflammatory model; set-up: method as in PubChem Bioassay AID 489033; conditions: ref PubChem Bioassay AID 489033; cited from earlier work
[3] = system: Salmonella choleraesuis subs. choleraesuis sorotype Typhi BM/Panama-TY2; assay: Antibacterial microdilution assay; assay type: cell-based
[4] = biological target: T1, AChE from Electropardus electricous type VI-S (Electrophorus electricus, UniProt O42275); assay: AChE inhibition microplate assay (Ellman); assay type: biochemical; conditions: 400 μg/mL; read-out: Inhibition of AChE Microplate (%I)
T1 construct: purchased Sigma-Aldrich, St. Louis, MO, USA type VI-S (catalogue number not given)
T1 sequence (O42275 24-633): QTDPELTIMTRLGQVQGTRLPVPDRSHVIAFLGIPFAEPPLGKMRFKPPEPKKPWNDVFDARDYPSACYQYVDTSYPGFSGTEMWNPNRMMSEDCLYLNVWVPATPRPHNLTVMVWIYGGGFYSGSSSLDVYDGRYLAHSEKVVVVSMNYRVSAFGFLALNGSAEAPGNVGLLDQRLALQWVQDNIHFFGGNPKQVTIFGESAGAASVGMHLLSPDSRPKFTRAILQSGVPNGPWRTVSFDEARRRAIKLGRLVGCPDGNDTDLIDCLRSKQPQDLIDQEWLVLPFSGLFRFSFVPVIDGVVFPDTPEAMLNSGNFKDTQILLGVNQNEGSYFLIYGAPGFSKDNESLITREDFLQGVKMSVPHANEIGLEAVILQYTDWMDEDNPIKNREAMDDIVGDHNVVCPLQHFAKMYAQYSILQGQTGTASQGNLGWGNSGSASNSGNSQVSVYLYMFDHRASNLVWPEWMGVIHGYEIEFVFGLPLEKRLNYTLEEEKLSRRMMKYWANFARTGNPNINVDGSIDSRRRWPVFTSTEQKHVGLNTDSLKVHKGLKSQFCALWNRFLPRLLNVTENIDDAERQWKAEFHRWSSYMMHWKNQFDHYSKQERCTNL
Description: AChE inhibition assay was performed on a 96-well microplate according to Ellman’s method with adaptations. Initially, the extracts were solubilized on MeOH, at 20 mg/mL, and diluted to 4 mg/mL using Tris/HCl buffer solution (50 mM, pH 8.0). A portion of 25 µL of the samples (4 mg/mL) were added to the wells of the microplate, as well as 50 μL of 0.1% BSA solution in Tris/HCl Buffe (pH 8.0), 125 μL of DTNB in Tris/HCl (3 mM) containing NaCl (10 mM) and MgCl2 (20 mM). Subsequently, 25 μL of the ATCI aqueous solution (15 mM) was added to all wells. Then, a background reading was performed at 405 nm using microplate reader (Multiskan Go, Thermo Scientific, Whaltham, MA, USA). The enzymatic reaction was initiated after the addition of 25 µL of AChE solution (AChE from Electropardus electricous type VI-S, 0.2 U/mL, Sigma-Aldrich, St. Louis, MO, USA) in Tris/HCl buffer (50 mM, pH 8.0) containing 0.1% BSA. The kinetic cycle was performed in a period of 25 min, with readings at 5 min intervals, at 405 nm. Physostigmine (Eserine, Sigma, St. Louis, MO, USA) was employed as the positive control. […] The assay was performed in triplicate and the % of inhibition (%I) was calculated according to the following equation: %I = [(a − b)/a] × 100, where a = ΔA/min of control; b = ΔA/min of test sample; ΔA = change in absorbance between time x and time zero. […]

[5] = system: Antagonist, thyroid receptor (TR); set-up: method as in PubChem Bioassay AID 743067; conditions: ref PubChem Bioassay AID 743067; cited from earlier work
[6] = system: Cytotoxicity, Agonist, vitamin D receptor (VDR); set-up: method as in PubChem Bioassay AID 743224; conditions: ref PubChem Bioassay AID 743224; cited from earlier work
Angiogenesis model = system: Angiogenesis model; set-up: method as in PubChem Bioassay AID 575; conditions: ref PubChem Bioassay AID 575; cited from earlier work
[7] = system: Chlamydomonas reinhardtii Algae Gravitaxis; set-up: method as in PubChem Bioassay AID 463189; conditions: ref PubChem Bioassay AID 463189; cited from earlier work
[8] = system: Cytotoxicity, Agonist, nuclear factor kappa B subunit 1; set-up: method as in PubChem Bioassay AID 1159515; conditions: ref PubChem Bioassay AID 1159515; cited from earlier work
[9] = system: Cell Cycle Modulation (counterscreen); set-up: method as in PubChem Bioassay AID 1117350; conditions: ref PubChem Bioassay AID 1117350; cited from earlier work
Anti-Inflammatory model [10] = system: Anti-Inflammatory model; set-up: method as in PubChem Bioassay AID 1267; conditions: ref PubChem Bioassay AID 1267; cited from earlier work
[11] = system: ADMET, Cytochrome P450 3A4; set-up: method as in PubChem Bioassay AID 885; conditions: ref PubChem Bioassay AID 885; cited from earlier work
[12] = Thiobarbituric acid reactive substances (TBARS) assay; set-up: species or system bovine
Description: The evaluation of antioxidant activity using the TBARS assay, with adaptations. Briefly, the samples were solubilized in methanol (50.0 to 31.25 μg/mL) and a portion of 25 μL of each extract solution was added to 10 mL test tubes in triplicate (two reaction tubes and one control). The tubes corresponding to the blank, negative and positive controls were prepared by adding 25 μL of deionized water, MeOH or propylgalate (Sigma, St. Louis, MO, USA, 0.1 mM), respectively. The phospholipid liposomes were prepared using bovine brain extract type VII (Sigma Aldrich, St. Louis, MO, USA, 10 mg/mL) in phosphate buffered saline (PBS) solution. The suspension was subjected to an ultrasonic bath until the formation of the liposomes. […] The butanolic phase was removed and transferred to a 96-well microplate, and the absorbance was recorded on a Multiskan Go microplate reader (Thermo Scientific, Whaltham, MA, USA) at 532 nm. The percentage of inhibition (%I) of lipid peroxidation was calculated as: %I = ((AC − AS)/AC) × 100 where AC is the absorbance of control, AS is the absorbance of samples. Assays were performed in triplicate and IC50 values were determined by non-linear regression using GraphPad Prism, version 6.0 (GraphPad Software, San Diego, CA, USA). […]

COc1cc([C@@H]2c3cc4c(cc3[C@H](O)[C@H]3COC(=O)[C@H]23)OCO4)cc(OC)c1OC [Podophyllotoxin, podophyllotoxin]
Exper. Activity [1]: Active
Exper. Activity (Anti-Inflammatory model [2]): Inactive
Salmonella Typhi Mean ± SD (percentage of inhibition of microbial growth) ([3]; 250 µg/mL): No antibacterial activity
inhibition at 250 µg/mL ([3]; Salmonella enterica, read-out: Salmonella Typhi Mean ± SD (percentage of inhibition of microbial growth)): 31.6 ± 7.54%
inhibition at 400 µg/mL [4]: 32.7 ± 5.38%
Exper. Activity [5]: Active
Exper. Activity [6]: Inactive
Exper. Activity (Angiogenesis model): Inactive
Exper. Activity [7]: Inactive
Exper. Activity [8]: Inactive
Exper. Activity [9]: Active
Exper. Activity (Anti-Inflammatory model [10]): Inactive
Exper. Activity [11]: Inactive
Antioxidant Activity (IC50-µg/mL) TBARS Assay [12]: >50 µg/mL
